Results as given in patent US5314891A, “Benzenesulphonamide derivatives” (Imperial Chemical Industries PLC, priority 1991, dated 1994).

How the values were obtained:
5-LO [1] = molecular target: T1, 5-LO (Homo sapiens, UniProt P09917); experiment: Test a) in vitro human blood assay, A23187 challenge, LTB4 radioimmunoassay; type: cell-based; conditions: heparinised human blood
T1 construct: incubating a test compound with heparinised human blood, prior to challenge with the calcium ionphore A23187; endogenous in cells; host or cells: blood cells in heparinised human blood
T1 sequence (P09917 1-674): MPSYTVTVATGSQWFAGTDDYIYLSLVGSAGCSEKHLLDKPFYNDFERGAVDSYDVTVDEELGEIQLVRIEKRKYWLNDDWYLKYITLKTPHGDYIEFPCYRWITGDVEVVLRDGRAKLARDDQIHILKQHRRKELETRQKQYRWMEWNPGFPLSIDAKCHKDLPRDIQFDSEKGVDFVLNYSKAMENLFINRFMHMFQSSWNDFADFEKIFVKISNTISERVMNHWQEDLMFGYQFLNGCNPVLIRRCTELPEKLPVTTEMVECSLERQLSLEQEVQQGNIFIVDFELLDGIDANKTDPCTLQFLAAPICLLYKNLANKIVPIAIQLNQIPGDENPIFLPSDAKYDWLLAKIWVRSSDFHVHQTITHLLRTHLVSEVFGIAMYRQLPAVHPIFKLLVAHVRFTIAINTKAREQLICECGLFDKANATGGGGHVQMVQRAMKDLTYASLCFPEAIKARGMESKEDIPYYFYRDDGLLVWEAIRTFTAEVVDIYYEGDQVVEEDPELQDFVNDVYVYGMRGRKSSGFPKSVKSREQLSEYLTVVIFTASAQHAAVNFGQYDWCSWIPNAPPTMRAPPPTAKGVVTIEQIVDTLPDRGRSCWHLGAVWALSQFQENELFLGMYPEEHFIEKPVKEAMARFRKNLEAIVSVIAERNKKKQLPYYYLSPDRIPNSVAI
Experimental: (§1) As stated previously, the novel compounds of the formula I are inhibitors of the enzyme 5-LO.
a) An in vitro assay system involving incubating a test compound with heparinised human blood, prior to challenge with the calcium ionphore A23187 and then indirectly measuring the inhibitory effects on 5-LO by assaying the amount of LTB4 using specific radioimmunoassays described by Carey and Forder (Prostaglandins, Leukotrienes Med., 1986, 22, 57; Prostaglandins, 1984, 28, 666; Brit. J. Pharmacol., 1985, 84, 34P) which involve the use of a protein-LTB4 conjugate produced using the procedure of Young et alia (Prostaglandins, 1983, 26(4), 605-613). The effects of a test compound on the enzyme cyclooxygenase (which is involved in the alternative metabolic pathway for arachidonic acid and gives rise to prostaglandins, thromboxanes and related metabolites) may be measured at the same time using the specific radioimmunoassay for thromboxane B2 (TxB2) described by Carey and Forder (see above). This test provides an indication of the effects of a test compound against 5-LO and also cyclooxygenase in the presence of blood cells and proteins. It permits the selectivity of the inhibitory effect on 5-LO or cyclooxygenase to be assessed.

5-LO [2] = molecular target: T2, 5-LO (Rattus norvegicus, UniProt P12527); experiment: Test c) in vivo zymosan-induced LTB4 liberation in rat air pouch; conditions: male rats, oral
T2 construct: liberation of LTB4 induced by zymosan within an air pouch generated within the subcutaneous tissue of the back of male rats; from tissue
T2 sequence (P12527 1-673): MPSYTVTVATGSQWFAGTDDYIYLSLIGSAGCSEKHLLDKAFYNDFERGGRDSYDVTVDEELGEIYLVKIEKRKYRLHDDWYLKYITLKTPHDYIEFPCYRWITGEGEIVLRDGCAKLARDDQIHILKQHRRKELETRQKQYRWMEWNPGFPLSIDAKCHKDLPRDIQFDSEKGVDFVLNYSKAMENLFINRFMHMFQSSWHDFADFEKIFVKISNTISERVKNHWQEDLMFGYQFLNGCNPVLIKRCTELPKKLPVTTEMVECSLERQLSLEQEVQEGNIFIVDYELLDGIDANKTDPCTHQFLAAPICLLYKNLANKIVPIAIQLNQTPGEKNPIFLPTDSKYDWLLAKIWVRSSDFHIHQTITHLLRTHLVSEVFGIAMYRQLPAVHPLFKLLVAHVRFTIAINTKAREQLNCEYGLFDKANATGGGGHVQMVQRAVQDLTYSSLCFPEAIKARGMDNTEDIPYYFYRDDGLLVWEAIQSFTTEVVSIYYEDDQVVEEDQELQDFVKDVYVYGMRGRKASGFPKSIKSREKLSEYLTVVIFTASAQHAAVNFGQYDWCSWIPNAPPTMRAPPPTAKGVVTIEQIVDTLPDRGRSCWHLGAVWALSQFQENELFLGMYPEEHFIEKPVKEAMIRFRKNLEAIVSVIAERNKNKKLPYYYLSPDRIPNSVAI
Experimental: as §1
c) An in vivo system involving measuring the effects of a test compound administered orally against the liberation of LTB4 induced by zymosan within an air pouch generated within the subcutaneous tissue of the back of male rats. The rats are anaesthetised and air pouches are formed by the injection of sterile air (20 ml). A further injection of air (10 ml) is similarly given after 3 days. At 6 days after the initial air injection the test compound is administered (usually orally as the suspension produced when a solution of the test compound in dimethylsulphoxide is added to hydroxypropylmethylcellulose), followed by the intrapouch injection of zymosan (1 ml of a 1% suspension in physiological saline). After 3 hours the rats are killed, the air pouches are lavaged with physiological saline, and the specific radioimmunoassay described above is used to assay LTB4 in the washings. This test provides an indication of inhibitory effects against 5-LO in an inflammatory milieu.

Row | IC50 (5-LO [1]) [nM] | ED50 (5-LO [2]) [mg/kg] | Structure (SMILES)
1 | 4200 | 1.5 | COC1(c2cccc(Sc3ccc(S(=O)(=O)Nc4ccc(Cl)cn4)cc3)c2)CCOCC1 [Example 4, N-(5-chloropyrid-2-yl)-4[3-(4-methoxytetrahydropyran-4-yl)phenylthio]benzenesulphonamide]
2 | 1000 | 1.5 | COC1(c2cccc(Sc3ccc(S(=O)(=O)Nc4nccs4)cc3)c2)CCOCC1 [Example 6, 4-[3-(4-methoxytetrahydropyran-4-yl)phenylthio]-N-(2-thiazolyl)benzenesulphonamide]
